From US10556866B2, “ROR gamma (RORγ) modulators” (LEAD PHARMA HOLDING B.V., priority 2015, dated 2020)

These compounds were tested against T1, RORγ (Homo sapiens, UniProt P51449) (assay: RORγ GAL4 reporter gene assay (luciferase readout)). Settings: inhibition of RORγ (GAL4-RORγ-LBD) in 293FT cells, luciferase signal; read-out: mean pIC50 (converted).
T1 construct: expressed in transfected cells; host or cells: 293FT cells (Invitrogen), expression vector pFN26A (Promega)
T1 sequence (P51449 269-508 limits assumed): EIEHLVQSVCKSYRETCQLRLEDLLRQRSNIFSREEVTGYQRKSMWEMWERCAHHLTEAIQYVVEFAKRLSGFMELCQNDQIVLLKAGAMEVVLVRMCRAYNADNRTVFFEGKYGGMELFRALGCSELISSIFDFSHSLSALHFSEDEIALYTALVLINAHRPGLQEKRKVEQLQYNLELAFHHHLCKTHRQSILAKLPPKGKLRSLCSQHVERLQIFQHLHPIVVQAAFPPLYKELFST
Type: cell-based
Method: Example inhibitors 1-38 were tested for their ability to inhibit RORγ activity in a RORγ GAL4 reporter gene assay. The assay procedure and results are described below.
A GAL4 one-hybrid reporter system employing luciferase readout was established to determine inhibition of RORγ in 293FT cells. The RORγ ligand-binding domain (LBD) was fused to the yeast GAL4 DNA binding domain (DBD) and placed under the control of the human cytomegalovirus (CMV) immediate early promoter, using expression vector pFN26A (Promega) and standard recombinant DNA cloning methods. To serve as a control in the assay, a similar vector was generated in which the GAL4-DBD was fused to Herpes simplex virus protein 16 (VP16), a constitutive transcriptional activator.
To monitor the inhibitory effect of compounds on RORγ, a transcriptional reporter construct was used. The pGL4.35 vector (Promega) contains nine copies of the GAL4 Upstream Activator Sequence (UAS). This sequence drives the transcription of the luciferase reporter gene luc2P in response to binding of a fusion protein containing the GAL4 DNA binding domain, as for example expressed by the GAL4-RORγ-LBD and GAL4-VP16 expression vectors described above. To allow a GAL4 fusion protein to drive the expression of the luciferase reporter, the pGL4.35 expression vector and the appropriate GAL4 fusion protein expression vector were bulk transfected in the 293FT cells using standard transfection techniques.
The day after transfection, cells were plated into 96 well plates, test compound was added and the plates were incubated overnight. Subsequently, the firefly luciferase activity was quantified using luciferase detection reagent and luminescence readout.
293FT cells (Invitrogen) were transfected with a GAL4 fusion protein expression vector (as described above) and the transcriptional reporter construct (pGL4.35, Promega). 60 μL of TransIT-293 transfection reagent (Mirus Bio) was added drop wise to 1500 μl Opti-MEM I Reduced Serum Medium (Invitrogen) and incubated at RT (RT) for 5 to 20 minutes. 1500 μL of this reagent mixture was added to 5 μg of GAL4 fusion protein expression vector and 5 μg of the transcriptional reporter construct, and incubated at RT for 20 minutes.
To harvest 293FT cells from a T75 flask, first the culture medium was taken off the cells. Subsequently, the cells were washed with Phosphate Buffered Saline (PBS) (Lonza), after which the PBS was removed. To dissociate the cells, 1 ml of TrypLE Express (Invitrogen) was added to the flask, followed by incubation at RT until the cells visually started to detach. Cells were collected in 5 mL of assay medium (DMEM culture medium (Lonza), 10% dialyzed FBS (Invitrogen) and Pen/Strep (Lonza)) to achieve a single cell suspension. 10×10^6 cells were spun down and re-suspended in 10 mL of assay medium. Subsequently, the cell suspension was added to the transfection mix tube, and then transferred as a whole to a T75 flask (Greiner), followed by overnight (16-24 hours) incubation at 37° C. and 5% CO2.
For compound screening, the cells were harvested (as described above) and counted. 13×10^6 cells were spun down, the supernatant was aspirated and the cells were re-suspended in 17.3 mL of assay medium obtaining a cell suspension of 0.75×10^6 cells/mL. 80 μL of cell suspension (60,000 cells) was plated per well into a white, flat bottom, tissue culture treated, 96 well screening plates (Greiner).
Test compounds were diluted, starting from a 10 mM dimethylsulfoxide (DMSO) stock solution, to serial dilutions in DMSO at 500× the final test concentration. Subsequently, these solutions were diluted to 5× the final test concentration in two 10-fold-dilution steps in assay medium. The final DMSO concentration of the 5× test compound solution was 1%. 20 μL of the 5× test compound solution was added to each test well of the 96 well plate previously plated with 80 μl cell suspension, resulting in the final test concentration with 0.2% DMSO. […]

IC50 [nM]	Compound
≤ 1000	O=C(NCc1ccc(S(=O)(=O)CC2CC2)cc1)c1ccc(C(O)(C(F)F)C(F)(F)F)cc1 (stereo not shown) [Example 5, N-[[4-(cyclopropylmethylsulfonyl)phenyl]methyl]-4-[1-(difluoromethyl)-2,2,2-trifluoro-1-hydroxy-ethyl]benzamide]
≤ 100	CC(C)OC(c1ccc(C(=O)NCc2ccc(S(=O)(=O)CC3CC3)cc2)cc1)(C(F)(F)F)C(F)(F)F [Example 26, N-[[4-(cyclopropylmethylsulfonyl)phenyl]methyl]-4-[2,2,2-trifluoro-1-isopropoxy-1-(trifluoromethyl)ethyl]benzamide]
≤ 1000	O=C(NCc1ccc(S(=O)(=O)CC2CC2)cc1)c1ccc(C(OCc2ccccc2)(C(F)(F)F)C(F)(F)F)cc1 [Example 27, 4-[1-benzyloxy-2,2,2-trifluoro-1-(trifluoromethyl)ethyl]-N-[[4-(cyclopropylmethylsulfonyl)phenyl]methyl]benzamide]
≤ 100	COC(c1ccc(C(=O)NCc2ccc(S(=O)(=O)CC3CC3)cc2C)cc1)(C(F)(F)F)C(F)(F)F [Example 28, N-[[4-(cyclopropylmethylsulfonyl)-2-methyl-phenyl]methyl]-4-[2,2,2-trifluoro-1-methoxy-1-(trifluoromethyl)ethyl]benzamide]
≤ 100	CCOC(c1ccc(C(=O)NCc2ccc(S(=O)(=O)CC3CC3)cc2C)cc1)(C(F)(F)F)C(F)(F)F [Example 29, N-[[4-(cyclopropylmethylsulfonyl)-2-methyl-phenyl]methyl]-4-[1-ethoxy-2,2,2-trifluoro-1-(trifluoromethyl)ethyl]benzamide]
≤ 1000	COC(c1ccc(C(=O)NCc2ccc(S(=O)(=O)NC3CC3)cc2)cc1)(C(F)(F)F)C(F)(F)F [Example 30, N-[[4-(cyclopropylsulfamoyl)phenyl]methyl]-4-[2,2,2-trifluoro-1-methoxy-1-(trifluoromethyl)ethyl]benzamide]
≤ 1000	CCOC(c1ccc(C(=O)NCc2ccc(S(=O)(=O)NC3CC3)cc2)cc1)(C(F)(F)F)C(F)(F)F [Example 31, N-[[4-(cyclopropylsulfamoyl)phenyl]methyl]-4-[1-ethoxy-2,2,2-trifluoro-1-(trifluoromethyl)ethyl]benzamide]
≤ 1000	CCCOC(c1ccc(C(=O)NCc2ccc(S(=O)(=O)NC3CC3)cc2)cc1)(C(F)(F)F)C(F)(F)F [Example 32, N-[[4-(cyclopropylsulfamoyl)phenyl]methyl]-4-[2,2,2-trifluoro-1-propoxy-1-(trifluoromethyl)ethyl]benzamide]
≤ 100	COC(CC(C)(C)C)(c1ccc(C(=O)NCc2ccc(S(=O)(=O)CC3CC3)cc2)cc1)C(F)(F)F (stereo not shown) [Example 33, N-[[4-(cyclopropylmethylsulfonyl)phenyl]methyl]-4-[1-methoxy-3,3-dimethyl-1-(trifluoromethyl)butyl]benzamide]
< 10000	C[C@@H](NC(=O)c1ccc(C(O)(C(F)(F)F)C(F)(F)F)cc1)c1ccc(S(=O)(=O)CC2CC2)cc1 [Example 34, N-[(1R)-1-[4-(cyclopropylmethylsulfonyl)phenyl]ethyl]-4-[2,2,2-trifluoro-1-hydroxy-1-(trifluoromethyl)ethyl]benzamide]
≤ 1000	C[C@H](NC(=O)c1ccc(C(O)(C(F)(F)F)C(F)(F)F)cc1)c1ccc(S(=O)(=O)CC2CC2)cc1 [Example 35, N-[(1S)-1-[4-(cyclopropylmethylsulfonyl)phenyl]ethyl]-4-[2,2,2-trifluoro-1-hydroxy-1-(trifluoromethyl)ethyl]benzamide]
≤ 100	Cc1cc(C(O)(c2ccc(C(=O)NCc3ccc(S(=O)(=O)CC4CC4)cc3)cc2)C(C)C)no1 (stereo not shown) [Example 36, N-[[4-(cyclopropylmethylsulfonyl)phenyl]methyl]-4-[1-hydroxy-2-methyl-1-(5-methylisoxazol-3-yl)propyl]benzamide]
≤ 1000	Cc1cc(C(O)(c2ccc(C(=O)NCc3ccc(S(=O)(=O)CC4CC4)cc3)cc2)C2CC2)no1 (stereo not shown) [Example 37, 4-[cyclopropyl-hydroxy-(5-methylisoxazol-3-yl)methyl]-N-[[4-(cyclopropylmethylsulfonyl)phenyl]methyl]benzamide]
≤ 100	Cc1cc(C(O)(c2ccc(C(=O)NCc3ccc(S(=O)(=O)CC4CC4)cc3)cc2)C(C)(C)C)no1 (stereo not shown) [Example 38, N-[(4-(cyclopropylmethylsulfonyl)phenyl)methyl]-4-[1-hydroxy-2,2-dimethyl-1-(5-methylisoxazol-3-yl)propyl]benzamide]

Compound	IC50 [nM]
CCCCOC(c1ccc(C(=O)NCc2ccc(S(=O)(=O)CC3CC3)cc2)cc1)(C(F)(F)F)C(F)(F)F [Example 25, 4-[1-butoxy-2,2,2-trifluoro-1-(trifluoromethyl)ethyl]-N-[[4-(cyclopropylmethylsulfonyl)phenyl]methyl]benzamide]	≤ 100

What follows are compounds tested on IL-17A production in anti-CD3/anti-CD28 stimulated peripheral blood mononuclear cells (PBMCs) (assay: Peripheral blood mononuclear cell (PBMC) IL-17 assay). Settings: 120 h, inhibition of IL-17A production, human PBMCs, 5 days, IL-17 ELISA, read-out: mean pIC50 (converted).
Type: cell-based
Method: Example inhibitor 5 was tested for its ability to inhibit the IL-17A production in anti-CD3/anti-CD28 stimulated peripheral blood mononuclear cells (PBMCs) isolated from human blood. The assay procedure and results are described below.
This assay is designed to measure the levels of IL-17A secreted from anti-CD3/anti-CD28 stimulated PBMCs with the aim of measuring RORγ mediated inhibition of IL-17A production.
The assay medium consists of 90% RPMI 1640 (Lonza), 10% heat inactivated fetal bovin serum (FBS, Lonza) and 100 U/mL penicillin/streptomycin solution.
Anti-CD3 antibody (BD Pharmingen) was diluted to 10 μg/ml in PBS (Lonza). 30 μL of 10 μg/ml anti-CD3 solution was added to the inner 60 wells, excluding any negative control wells, of a 96-well cell culture treated U-bottom plate (Greiner). Plates were incubated overnight (16-24 hours) at 37° C. and 5% CO2. […]
After incubation the plates were spun down at 1500 rpm for 4 minutes and the supernatant was collected. Subsequently, the IL-17A levels in the supernatants was determined using an IL-17 ELISA kit (human IL-17 DuoSet, R&D systems) according to manufacturer's protocol.
The half maximum inhibitory concentration (IC50) values for the test compounds were calculated from the IL-17A signal using GraphPad Prism software (GraphPad Software).

Compound	IC50 [nM]
O=C(NCc1ccc(S(=O)(=O)CC2CC2)cc1)c1ccc(C(O)(C(F)F)C(F)(F)F)cc1 (stereo not shown) [Example 5, N-[[4-(cyclopropylmethylsulfonyl)phenyl]methyl]-4-[1-(difluoromethyl)-2,2,2-trifluoro-1-hydroxy-ethyl]benzamide]	100
